These results are taken from ChEMBL document CHEMBL5550165, “Novel quinoxaline analogs as telomeric G-quadruplex ligands exert antitumor effects related to enhanced immunomodulation” (Eur J Med Chem, 2024).

Assay [1] relates to MDA-MB-231. As to the kind of experiment: Induction of cell cycle arrest in human MDA-MB-231 cells assessed as accumulation of cells at G0/G1 phase at 2 uM incubated for 24 hrs by RNase/PI staining based flow cytometry (reference value: 82.3 %). Format: functional.
Another assay deals with DNA. In words: Binding affinity to Hairpin DNA (unknown origin) assessed as thermal shift at 10 uM by UV-Visible spectrophotometric analysis. Type of assay: nucleic-acid assay.
Assay [2] has as its system MDA-MB-231. As to the kind of experiment: Induction of DNA damage in human MDA-MB-231 cells assessed as upregulation of RPA32 expression at 1 to 4 uM incubated for 24 hrs by Western blot analysis. Format: functional, cell-based. Particulars: dose 1-4 µM.
The subject of assay [3] is 4T1. As to the kind of experiment: Antitumor activity against mouse 4T1 cells implanted in BALB/c mouse assessed as reduction in tumor weight at 10 mg/kg,ip every other day for 14 days. Type of assay: functional, organism-based. As to conditions: time 14.0 day.
For assay [4], the system named is 4T1. In words: Antitumor immunity against mouse 4T1 cells implanted in BALB/c mouse assessed as increase in serum IL-6 level at 10 mg/kg,ip every other day for 14 days by ELISA. As to conditions: time 14.0 day. Type of assay: functional, organism-based.

The source made the active and inactive calls. The rule behind the calls is not given here.

As to `CN(C)CCN(C)c1ccc(-c2nc3ccc(C(F)(F)F)cc3nc2-c2ccc(N(C)CCN(C)C)cc2)cc1`, the Activity in the assay with MDA-MB-231 [1] came to 81.6%. In the assay with DNA, the result was inactive. Also, the outcome in the assay with MDA-MB-231 [2], in the assay on 4T1 [3] and in the assay on 4T1 [4] was Active.
